What was measured:
glucocorticoid receptors [1] = conditions: versus other steroid receptors, particularly mineralocorticoid; TEUTSCH et al. 1981; cited from earlier work
plasmatic proteins = experiment: Specific fixation on plasmatic proteins; assay type: binding; conditions: animals or humans
[2] = Stability and metabolism under in vitro incubation conditions; assay type: in vitro ADME; conditions: for metabolism in vitro in certain tissues: working in vitro, incubation conditions
Procedure: (§1) (d) At 0° C. and 15° C., product A forms complexes with thymus glucocorticoid receptors which are stable for at least 24 hours. […] For this reason, it permits the total number of glucocorticoid fixation sites to be determined in different physiological conditions.

[3] = test system: glucocorticoid receptors of the hippocampus; experiment: Dissociation from glucocorticoid receptors of hippocampus cytosol; assay type: binding
glucocorticoid receptors [4] = experiment: Selectivity of fixation on steroid receptors; assay type: binding; conditions: compared with similar non-radioactive products
Text: 651-665 (1981)]. Otherwise, other natural or synthetic corticoids which are used for this type of experiment, simultaneously fix on other steroid receptors and particularly on mineralocorticoid receptors. However, during such experiments with non-radioactive 6-methyl-17α-(prop-1-ynyl)-Δ^1,4,6 -androstatriene-11β,17β-diol-3-one, particularly when the tissues […] examined included simultaneously glucocorticoid and mineralocorticoid receptors, it was often necessary to adopt a succession of long and complicated methods.
Because of the radioactivity of the products of formula I, it is much easier to reveal the existence of the glucocorticoid receptors in the tissues of organs when mineralocorticoid receptors are also present, thanks to the use of the usual methods of liaison measurements taking advantage of radioactive products. In addition, what was not possible with a non-radioactive product, such, for example, as determining of the number of sites of fixation of the glucocorticoid receptors, becomes realizable by the use of the products of formula I.

[5] = biological target: T1, glucocorticoid receptors of cytosol of rat thymus (Rattus norvegicus, UniProt P06536); experiment: Fixation on glucocorticoid receptors of rat thymus cytosol (carbon-dextran adsorption); assay type: binding
T1 construct: carbon-dextran adsorption
T1 sequence (P06536 1-795): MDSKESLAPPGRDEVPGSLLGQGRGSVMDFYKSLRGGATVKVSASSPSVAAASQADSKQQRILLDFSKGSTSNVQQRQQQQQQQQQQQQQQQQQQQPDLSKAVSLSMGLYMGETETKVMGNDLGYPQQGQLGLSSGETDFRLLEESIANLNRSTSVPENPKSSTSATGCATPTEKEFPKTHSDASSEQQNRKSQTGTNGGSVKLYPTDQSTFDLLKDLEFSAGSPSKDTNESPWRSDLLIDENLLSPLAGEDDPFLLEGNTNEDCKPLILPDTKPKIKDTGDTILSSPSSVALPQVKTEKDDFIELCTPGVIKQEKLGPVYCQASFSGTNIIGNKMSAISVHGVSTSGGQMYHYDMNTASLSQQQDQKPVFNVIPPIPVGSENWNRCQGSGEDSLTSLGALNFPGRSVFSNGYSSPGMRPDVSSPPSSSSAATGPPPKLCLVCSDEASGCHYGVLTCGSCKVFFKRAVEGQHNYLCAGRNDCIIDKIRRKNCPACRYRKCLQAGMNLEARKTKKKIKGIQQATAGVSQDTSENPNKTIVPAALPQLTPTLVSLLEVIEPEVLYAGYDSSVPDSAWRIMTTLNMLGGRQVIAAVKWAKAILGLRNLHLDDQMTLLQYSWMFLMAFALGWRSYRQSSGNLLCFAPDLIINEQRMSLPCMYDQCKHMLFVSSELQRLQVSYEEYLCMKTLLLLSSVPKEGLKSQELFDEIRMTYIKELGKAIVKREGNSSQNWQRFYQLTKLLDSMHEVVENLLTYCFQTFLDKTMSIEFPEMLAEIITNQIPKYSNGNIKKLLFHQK
Procedure: as §1

[6] = 0° C. and 15° C., 24 hours, thymus receptor incubation

In the case of `CC#CC1(O)CCC2C3C=C(C)C4=CC(=O)C=CC4(C)C3C(O)CC21C` (stereo not drawn) [6-methyl-17α-(prop-1-ynyl)-Δ^1,4,6-androstatriene-11β,17β-diol-3-one], the “selectivity of fixation on glucocorticoid receptors” value (glucocorticoid receptors [1]) is given as “fixes selectively on the glucocorticoid receptors”.

For `[3H]C([3H])([3H])C1=CC2C(C(O)CC3(C)C2CCC3(O)C#CC)C2(C)C=CC(=O)C=C12` (stereo not drawn) [Product A, 6-methyl-^3 H3-17α-(prop-1-ynyl)-Δ^1,4,6-androstatriene-11β,17β-diol-3-one], the “specific fixation on plasmatic proteins” value (plasmatic proteins) was “does not give rise to any specific fixation”, the loss of tritium [2, 6] was “does not show any loss of tritium” and the “metabolism under incubation conditions” value [2, 6] was “is not subject to metabolism”. The “shape of dissociation curve” value [3] was “a curve with one slope”, the “selective reactivity in respect of the glucocorticoid receptors” value (glucocorticoid receptors [4]) was “the same selective reactivity” and the non-specific fixation ([5]; 0° C. and 15° C., 24 hours) was “only shows a weak non-specific fixation”. The “constant of association (Ka)” value ([5]; 0° C., rat thymus cytosol, adsorption by carbon-dextran) was ~10^9 M^-1, the “constant of association relative to dexamethazone” value ([5]; 0° C., rat thymus cytosol, compared with dexamethazone) was “about twice as high as that of dexamethazone” and the “stability of complexes with thymus glucocorticoid receptors” value ([5]; at 0° C. and 15° C.) was “at least 24 hours”. For the same compound, the “replacement of non-radioactive corticosterone and cortisol fixed on glucocorticoid receptors” value ([5]; incubation at 15° C. for 24 hours) was “totally replaces”, the “shape of dissociation curve” value ([5]; thymus) was “a curve with one slope” and the “speed of association (K+1)” value ([5]; towards the glucocorticoid receptors) was ~10^6 M^-1 mn^-1.

For `C[C@]12C[C@H](O)[C@H]3[C@@H](CCC4=CC(=O)CC[C@@]43C)[C@@H]1CC[C@@H]2C(=O)CO` [corticosterone, reference compound], the “metabolism in vitro in certain tissues” value [2] was “are metabolized in certain tissues”.

In the case of `C[C@]12CCC(=O)C=C1CC[C@@H]1[C@@H]2[C@@H](O)C[C@@]2(C)[C@H]1CC[C@]2(O)C(=O)CO` [cortisol, reference compound], the “metabolism in vitro in certain tissues” value [2] is reported as “are metabolized in certain tissues”.

For “^3 H-corticosterone [reference compound]”, the “shape of dissociation curve” value [3] was “a dissociation curve with two slopes”.

Source: patent US4664850A, “Novel radioactive steroids” (Roussel Uclaf, priority 1983, dated 1987)
